Test results as given in ChEMBL document CHEMBL1125817, “Synthesis and evaluation of a series of 3,5-disubstituted benzisoxazole-4,7-diones. Potent radiosensitizers in vitro” (1991).

How the values were obtained:
[1] = Sensitizer enhancement ratio was determined from the ratio of the doses required to reduce cell survival to 25% of the control value obtained from hypoxic survival curves in the presence and absence of test compound; assay type: functional, Cricetulus griseus
[2] = species on record: Cricetulus griseus; test: Concentration of the highest non-toxic dose tested; assay type: functional
[3] = species on record: Cricetulus griseus; test: Sensitizer enhancement ratio was determined from the ratio of the doses required to reduce cell survival to 25% of the control value obtained from hypoxic survival curves in the presence and absence of test compound; c = Compound was too insoluble to test; assay type: functional
[4] = species on record: Cricetulus griseus; test: Concentration of the highest non-toxic dose tested; c = Compound was too insoluble to test; assay type: functional

Cc1ccc(/N=C2/C=C(O)c3noc(NCCN(C)C)c3C2=O)cc1 showed a Ratio [1] of 1.2 and a Concentration [2] of 0.05 mM.
With CCOc1onc2c1C(=O)/C(=N\c1ccc(Cl)cc1)C=C2O the Ratio [3] was “Too insoluble” and the Concentration [4] was “Too insoluble”.
For CCOc1onc2c1C(=O)/C(=N\c1ccc(C(F)(F)F)cc1)C=C2O, the Ratio [3] was “Too insoluble” and the Concentration [4] was “Too insoluble”.
For CCN(CC)c1onc2c1C(=O)/C(=N\c1ccccc1)C=C2O, the Ratio [3] was “Too insoluble” and the Concentration [4] was “Too insoluble”.
O=C1/C(=N\c2ccccc2)C=C(O)c2noc(N(CCO)CCO)c21 showed a Ratio [1] of 2.1 and a Concentration [2] of 1.5 mM.
Compound CN(C)CCCN(C)c1onc2c1C(=O)/C(=N\c1ccccc1)C=C2O has a Ratio [1] of 1.5 and a Concentration [2] of 0.38 mM.
With CCNc1onc2c1C(=O)/C(=N\c1ccccc1)C=C2O the Ratio [3] was “Too insoluble” and the Concentration [4] was “Too insoluble”.
With CN(C)CCCNc1onc2c1C(=O)/C(=N\c1ccccc1)C=C2O the Ratio [1] was 1.7 and the Concentration [2] was 0.19 mM.
Compound CN(C)CCCNc1onc2c1C(=O)/C(=N\c1ccc(C(F)(F)F)cc1)C=C2O has a Ratio [1] of 1.3 and a Concentration [2] of 0.09 mM.
Compound CN(C)CCCNc1onc2c1C(=O)/C(=N\c1ccc(Cl)cc1)C=C2O has a Ratio [1] of 1.7 and a Concentration [2] of 0.13 mM.
O=C1C=C(Nc2ccc(F)cc2)C(=O)c2c1noc2NCCN1CCCCC1 showed a Ratio [1] of 1.6 and a Concentration [2] of 0.29 mM.
In the case of O=C1C=C(Nc2ccccc2)C(=O)c2c1noc2NCCN1CCCCC1, the Ratio [1] is reported as 2.4 and the Concentration [2] is reported as 0.38 mM.
In the case of O=C1C=C(Nc2ccc(Cl)cc2)C(=O)c2c1noc2NCCN1CCCCC1, the Ratio [1] is reported as 1.9 and the Concentration [2] is reported as 0.19 mM.
With O=C1C=C(Nc2ccccc2)C(=O)c2c1noc2-c1ccccc1 the Ratio [3] was “Too insoluble” and the Concentration [4] was “Too insoluble”.
Work on CCOc1onc2c1C(=O)/C(=N\c1ccccc1)C=C2O yielded a Ratio [1] of 1.3 and a Concentration [2] of 0.03 mM.
For CCOc1onc2c1C(=O)/C(=N\c1ccc(C)cc1)C=C2O, the Ratio [3] was “Too insoluble” and the Concentration [4] was “Too insoluble”.
In the case of Cc1onc2c1C(=O)/C(=N\c1ccccc1)C=C2O, the Ratio [3] is reported as “Too insoluble” and the Concentration [4] is reported as “Too insoluble”.
CN(C)CCN(C)c1onc2c1C(=O)/C(=N\c1ccccc1)C=C2O gave a Ratio [1] of 2 and a Concentration [2] of 0.38 mM.
For CN(C)CCCNc1onc2c1C(=O)/C(=N\c1ccc(F)cc1)C=C2O, the Ratio [1] was 1.4 and the Concentration [2] was 0.38 mM.
CN(C)CCNc1onc2c1C(=O)/C(=N\c1ccccc1)C=C2O gave a Ratio [1] of 1.5 and a Concentration [2] of 0.19 mM.
O=C1C=C(Nc2ccc(C(F)(F)F)cc2)C(=O)c2c1noc2NCCN1CCCCC1 gave a Ratio [1] of 1.6 and a Concentration [2] of 0.13 mM.
With CCOc1onc2c1C(=O)/C(=N\c1ccc(F)cc1)C=C2O the Ratio [3] was “Too insoluble” and the Concentration [4] was “Too insoluble”.
